These results are taken from patent US6706728B2, “Systems and methods for treating a mucosal surface” (3M Innovative Properties Company, priority 1999, dated 2004).

Holding throughout (type): in vivo, human
Data set [1] in a line: Single dose cervical application study: systemic exposure (PK) of imiquimod in serum. The procedure: (§1) This was a single dose, randomized, double-blind, placebo controlled dose escalation study which evaluated five doses of imiquimod. 50, 100, 150, 200 and 250 mg of imiquimod in a cream formulation were applied to the cervix for eight hours. Each dose group was composed of 8 subjects (6 active and 2 placebo), with two subjects treated as dose leaders, and the remaining six subjects were treated after an acceptable response by the dose leaders. Safety was assessed by adverse events (AE's), laboratory tests, and colposcopy with photodocumentation of the cervix at pre-dose and 24 hours post-dose, and 48 hours post-dose if required. Systemic exposure (PK) was determined by measuring imiquimod and metabolites through 48 hours post-dose and the PD response was determined by serum analysis for the cytokines: tumor necrosis factor-α (TNF-α), interferon-α (IFN-α), interleukin-1 receptor […] (IL-1RA), interleukin-6 (IL-6), neopterin (NPT) and 2′5′ oligoadenlyate synthetase (2′5′ AS) during dosing and selected times during the 48 hours post-dose. Statistical tests to evaluate AE's and demographics, laboratory tests, vital signs and ECG's were Fisher's Exact, Wilcoxon Rank-Sum and Kruskall Wallis Tests respectively. Cytokine changes between dose groups were compared using Wilcoxon Rank-Sum and changes from baseline were evaluated using Spearman Rank Correlation.

The next data set deals with cervix. As to the kind of experiment: Single dose cervical application study: safety (adverse events, pelvic and colposcopic examination). As to the method:
as §1

Data set [2] has as its system serum cytokines (TNF-α, IFN-α, IL-1RA, IL-6, NPT, 2′5′ AS). As to the kind of experiment: Single dose cervical application study: PD response by serum analysis for cytokines. The procedure:
as §1

Setting [3] is: single doses up to 250 mg applied to the cervix for 8 hours, healthy volunteers.
[4] abbreviates: serum, 150 mg, 200 mg and 250 mg groups.

For `CC(C)Cn1cnc2c(N)nc3ccccc3c21` [imiquimod, 1-(2-methylpropyl)-1H-imidazo[4,5-c] quinolin-4-amine], the “serum levels of imiquimod” value in data set [1] (single dose 50-250 mg imiquimod cream (Formulation A) applied to the cervix for 8 hours, through 48 hours post-dose, quantifiable >5 ng/ml) was not above 5 ng/mL. Further, in data set [1] (setting [3]), the systemic exposure result is reported as “minimal systemic exposure”. Moreover, in the data set on cervix (250 mg dose group), the “time to resolution of cervical reactions” value was not above 48 h. Also, the “subjects experiencing cervical changes of minor small vesicles or smaller ulcer” value with cervix (250 mg dose group, pelvic and colposcopic examination) was 2 of 6. Besides, the overall safety entry in the data set with cervix (setting [3]) is “safe”. For the same compound, the “systemic concentration of certain cytokines” value in data set [2] (cervical application of a dose ≧150 mg) is “increases”. Moreover, in data set [2] (setting [4]), the “2′5′ AS change from baseline” value is reported as “Significant changes from baseline”, the “IL-1RA change from baseline” value is reported as “Significant changes from baseline” and the “NPT (neopterin) change from baseline” value is “Significant changes from baseline”. In data set [2] (serum, 250 mg group), the “IFN change from baseline” value is given as “Significant changes from baseline” and the “IL-6 change from baseline” value was “Significant changes from baseline”.
